Earlier results as cited in patent US20220304980A1, “METERED DOSING COMPOSITIONS AND METHODS OF USE OF P[…]” (SW Holdings, Inc, priority 2019, published 2022).

Assays:
[1] = biological target: 5-HT2A receptor (Homo sapiens, UniProt P28223); conditions: selective 5-HT2A antagonists; cited from earlier work
[2] = system: rat veins; conditions: cited from earlier work

Chain of 5-HT2A receptor (P28223 whole entry): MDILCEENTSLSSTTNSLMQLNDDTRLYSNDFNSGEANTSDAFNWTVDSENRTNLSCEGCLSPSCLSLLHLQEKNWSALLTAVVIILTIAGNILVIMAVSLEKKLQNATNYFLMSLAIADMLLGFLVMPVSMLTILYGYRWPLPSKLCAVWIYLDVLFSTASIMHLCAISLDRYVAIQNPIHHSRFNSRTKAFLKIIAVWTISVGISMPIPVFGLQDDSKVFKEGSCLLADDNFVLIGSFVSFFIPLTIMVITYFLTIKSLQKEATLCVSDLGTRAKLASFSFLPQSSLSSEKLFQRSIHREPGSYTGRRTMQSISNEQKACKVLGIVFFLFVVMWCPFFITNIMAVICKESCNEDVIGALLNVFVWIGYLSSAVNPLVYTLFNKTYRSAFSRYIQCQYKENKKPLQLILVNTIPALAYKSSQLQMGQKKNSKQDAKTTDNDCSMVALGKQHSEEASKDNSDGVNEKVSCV

SMILES | vascular effect [1] | effect on DOI-induced constriction of rat veins ([2]; 5-HT2A antagonist) | effect on rat veins ([2]; 5-HT2A agonist)
COc1cccc(CCc2ccccc2OCC(CN(C)C)OC(=O)CCC(=O)O)c1 (centres unmarked) [sarpogrelate] | vasodilating properties |  | 
O=C(c1ccc(F)cc1)C1CCN(CCn2c(=O)[nH]c3ccccc3c2=O)CC1 [ketanserin] | vasodilating properties | blocked | 
COc1cc(CC(C)N)c(OC)cc1I (centres unmarked) [DOI] |  |  | constricts rat veins
O=CN1CCC(C(=O)NCCN2CCC(=C3c4ccccc4C=Cc4ccccc43)CC2)CC1 [AT-1015] | vasodilating properties |  | 
